Test results published in ChEMBL document CHEMBL5532665 (J Med Chem, 2024).
Active and inactive are the calls of the source. No cut-off for these calls is given here.

Legend:
Mu-type opioid receptor [1] = biological target: T1, Mu-type opioid receptor (Homo sapiens, UniProt P35372); experiment: Agonist activity at human MOR expressed in CHO-K1 cells co-expressing G-alpha15 by calcium mobilization assay relative to control; assay type: functional, cell-based; conditions: filed as agonist
[2] = biological target: Kappa-type opioid receptor (Homo sapiens, UniProt P41145); experiment: Agonist activity at human KOR expressed in CHO-K1 cells co-expressing G-alpha15 by calcium mobilization assay relative to control; assay type: functional, cell-based; conditions: filed as agonist
Kappa-type opioid receptor, sequence (P41145 whole entry): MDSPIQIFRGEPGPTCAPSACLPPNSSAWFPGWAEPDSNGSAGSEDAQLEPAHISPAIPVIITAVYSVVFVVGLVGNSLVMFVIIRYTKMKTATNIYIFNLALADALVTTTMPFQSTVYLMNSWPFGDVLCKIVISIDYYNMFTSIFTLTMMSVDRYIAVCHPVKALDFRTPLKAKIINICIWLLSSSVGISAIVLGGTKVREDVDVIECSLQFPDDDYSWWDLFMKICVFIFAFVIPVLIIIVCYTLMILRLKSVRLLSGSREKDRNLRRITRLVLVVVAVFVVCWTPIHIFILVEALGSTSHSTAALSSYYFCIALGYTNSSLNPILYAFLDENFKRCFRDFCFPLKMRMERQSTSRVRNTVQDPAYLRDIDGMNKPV

[3] = biological target: Delta-type opioid receptor (Homo sapiens, UniProt P41143); experiment: Agonist activity at human DOR expressed in CHO-K1 cells co-expressing G-alpha15 by calcium mobilization assay relative to control; assay type: functional, cell-based; conditions: filed as agonist
Delta-type opioid receptor, sequence (P41143 whole entry): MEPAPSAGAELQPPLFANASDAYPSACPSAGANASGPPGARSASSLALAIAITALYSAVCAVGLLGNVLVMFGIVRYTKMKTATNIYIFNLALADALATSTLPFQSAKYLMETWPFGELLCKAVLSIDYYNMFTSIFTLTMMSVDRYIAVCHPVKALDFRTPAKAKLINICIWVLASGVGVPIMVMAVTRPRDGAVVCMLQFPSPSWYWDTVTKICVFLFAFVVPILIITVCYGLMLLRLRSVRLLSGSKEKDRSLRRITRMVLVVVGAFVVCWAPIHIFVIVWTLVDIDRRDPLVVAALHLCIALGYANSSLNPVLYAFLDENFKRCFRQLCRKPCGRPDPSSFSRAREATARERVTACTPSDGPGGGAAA

Mus musculus [4] = experiment: Antinociceptive activity in Kunming mouse model at 1.4 nmol/kg, sc in presence of beta-FNA by tail-flick test; assay type: functional, organism-based
Mus musculus [5] = experiment: Antinociceptive activity in Kunming mouse model at 1.4 nmol/kg, sc in presence of nor-BNI by tail-flick test; assay type: functional, organism-based
Mus musculus [6] = experiment: Antinociceptive activity in Kunming mouse model at 1.4 nmol/kg, sc in presence of NTI by tail-flick test; assay type: functional, organism-based
Mus musculus [7] = experiment: Antinociceptive activity in Kunming mouse model at 1.4 nmol/kg, sc pretreated with NALM subcutaneously followed by compound administration by tail-flick test; assay type: functional, organism-based
Mus musculus [8] = experiment: Antinociceptive activity in Kunming mouse model at 1.4 nmol/kg, sc pretreated with NALM intracerebroventricularly followed by compound administration by tail-flick test; assay type: functional, organism-based
Mus musculus [9] = experiment: Antinociceptive activity in Kunming mouse model assessed as increase in analgesic effect at 0.014 to 1.4 nmol/kg, sc measured for 180 to 360 mins by tail-flick test; assay type: functional, organism-based; conditions: dose 0.014-1.4 nmol/kg, time 180-360 min
Mus musculus [10] = experiment: Antinociception activity in Kunming mouse model assessed as analgesic effect at 1.4 nmol/kg, sc administered daily measured for 8 days by tail-flick test; assay type: functional, organism-based; conditions: time 8.0 day
Mus musculus [11] = experiment: Antinociception activity in Kunming mouse model assessed as analgesic effect at 1.4 nmol/kg, sc administered daily measured for 8 days in presence of NTI by tail-flick test; assay type: functional, organism-based; conditions: time 8.0 day
Mus musculus [12] = experiment: Rewarding affect in Kunming mouse model at 13.8 nmol/kg, sc pre-exposed to place conditioning for 3 days followed by compound administration and further re-exposed to place conditioning measured on day 5 by unbiased CPP method; assay type: functional, organism-based; conditions: time 2.0 day
Mus musculus [13] = experiment: Induction of physical dependence in Kunming mouse model assessed as jumping behavior at 0.2 to 10 nmol/kg, sc administered as 7 escalating doses with 8 hr-intervals in-between followed by Nal administration post-2 hrs of last compound dose and further measured for 30 mins by withdrawal assay; assay type: functional, organism-based; conditions: dose 0.2-10 nmol/kg, time 50.5 hrs
Mus musculus [14] = experiment: Antinociceptive activity in Kunming mouse model at 13.9 nmol/kg, sc in presence of beta-FNA by tail-flick test; assay type: functional, organism-based
Mus musculus [15] = experiment: Antinociceptive activity in Kunming mouse model at 13.9 nmol/kg, sc in presence of nor-BNI by tail-flick test; assay type: functional, organism-based
Mus musculus [16] = experiment: Antinociceptive activity in Kunming mouse model at 13.9 nmol/kg, sc in presence of NTI by tail-flick test; assay type: functional, organism-based
Mus musculus [17] = experiment: Antinociceptive activity in Kunming mouse model at 13.9 nmol/kg, sc pretreated with NALM subcutaneously followed by compound administration by tail-flick test; assay type: functional, organism-based
Mus musculus [18] = experiment: Antinociceptive activity in Kunming mouse model at 13.9 nmol/kg, sc pretreated with NALM intracerebroventricularly followed by compound administration by tail-flick test; assay type: functional, organism-based
Mus musculus [19] = experiment: Antinociceptive activity in Kunming mouse model assessed as increase in analgesic effect at 0.14 to 13.9 nmol/kg, sc measured for 180 to 360 mins by tail-flick test; assay type: functional, organism-based; conditions: dose 0.14-13.9 nmol/kg, time 180-360 min
Mus musculus [20] = experiment: Antinociception activity in Kunming mouse model assessed as analgesic effect at 13.9 nmol/kg, sc administered daily measured for 8 days by tail-flick test; assay type: functional, organism-based; conditions: time 8.0 day
Mus musculus [21] = experiment: Rewarding affect in Kunming mouse model at 139 nmol/kg, sc pre-exposed to place conditioning for 3 days followed by compound administration and further re-exposed to place conditioning measured on day 5 by unbiased CPP method; assay type: functional, organism-based; conditions: time 2.0 day
Mus musculus [22] = experiment: Induction of physical dependence in Kunming mouse model assessed as jumping behavior at 2.5 to 125 nmol/kg, sc administered as 7 escalating doses with 8 hr-intervals in-between followed by Nal administration post-2 hrs of last compound dose and further measured for 30 mins by withdrawal assay; assay type: functional, organism-based; conditions: dose 2.5-125 nmol/kg, time 50.5 hrs
Mu-type opioid receptor [23] = biological target: T1, Mu-type opioid receptor; experiment: Agonist activity at human MOR expressed in CHO-K1 cells co-expressing G-alpha15 by calcium mobilization assay; assay type: functional, cell-based; conditions: cho-k1
Mus musculus [24] = experiment: Antinociceptive activity in Kunming mouse model assessed as latency of tail withdrawal at 13.9 nmol/kg, sc measured for 10 mins by tail-flick test relative to control; assay type: functional
Mus musculus [25] = experiment: Antinociceptive activity in Kunming mouse model assessed as latency of tail withdrawal at 13.9 nmol/kg, sc measured for 30 mins by tail-flick test relative to control; assay type: functional; conditions: 0.5 h
Mus musculus [26] = experiment: Antinociceptive activity in Kunming mouse model assessed as latency of tail withdrawal at 13.9 nmol/kg, sc measured for 60 mins by tail-flick test relative to control; assay type: functional; conditions: 1 h
Mus musculus [27] = experiment: Antinociceptive activity in Kunming mouse model assessed as latency of tail withdrawal at 13.9 nmol/kg, sc measured for 120 mins by tail-flick test relative to control; assay type: functional; conditions: 2 h
[28] = Stability in mouse plasma assessed as half life at 0.01 mol/L measured for 72 hrs by RP-HPLC analysis; assay type: ADME, cell-free
Mus musculus [29] = experiment: Antinociceptive activity in Kunming mouse model administered subcutaneously by tail-flick test; assay type: functional; conditions: route sc
Mus musculus [30] = experiment: Antinociceptive activity in Kunming mouse model administered orally by tail-flick test; assay type: functional; conditions: route po
Mus musculus [31] = experiment: Antinociceptive activity in Kunming mouse model administered subcutaneously measured for 5 to 15 mins by acetic acid-induced writhing test; assay type: functional; conditions: route sc, time 5-15 min
Mus musculus [32] = experiment: Inhibition of gastrointestinal motility in fasted Kunming mouse model treated subcutaneously for 15 mins followed by charcoal-gum arabic treatment measured after 30 mins; assay type: functional; conditions: 0.75 h, route sc, time 45 min
Mus musculus [33] = experiment: Antinociceptive activity in Kunming mouse model at 1416 nmol/kg, sc in presence of beta-FNA by tail-flick test; assay type: functional, organism-based
Mus musculus [34] = experiment: Antinociceptive activity in Kunming mouse model at 1416 nmol/kg, sc in presence of nor-BNI by tail-flick test; assay type: functional, organism-based
Mus musculus [35] = experiment: Antinociceptive activity in Kunming mouse model at 1416 nmol/kg, sc in presence of NTI by tail-flick test; assay type: functional, organism-based
Mus musculus [36] = experiment: Antinociceptive activity in Kunming mouse model at 1416 nmol/kg, sc pretreated with NALM subcutaneously followed by compound administration by tail-flick test; assay type: functional, organism-based
Mus musculus [37] = experiment: Antinociceptive activity in Kunming mouse model at 1416 nmol/kg, sc pretreated with NALM intracerebroventricularly followed by compound administration by tail-flick test; assay type: functional, organism-based

T1 sequence (P35372 whole entry): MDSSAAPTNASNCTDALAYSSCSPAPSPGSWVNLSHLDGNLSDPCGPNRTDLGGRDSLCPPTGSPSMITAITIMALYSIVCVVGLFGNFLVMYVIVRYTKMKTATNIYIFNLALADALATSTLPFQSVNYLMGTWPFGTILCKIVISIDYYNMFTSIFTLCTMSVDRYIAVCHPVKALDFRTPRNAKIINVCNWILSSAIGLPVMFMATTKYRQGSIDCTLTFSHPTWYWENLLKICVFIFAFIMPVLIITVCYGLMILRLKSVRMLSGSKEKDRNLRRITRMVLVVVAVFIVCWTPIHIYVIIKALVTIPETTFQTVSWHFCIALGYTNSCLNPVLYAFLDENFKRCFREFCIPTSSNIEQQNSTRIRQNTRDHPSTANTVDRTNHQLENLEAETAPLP

## NC(=O)[C@@H]1CCCN1C(=O)[C@H]1CC(=O)NCCCC[C@@H](NC(=O)[C@@H](N)Cc2ccc(O)cc2)C(=O)NCC(=O)N[C@@H](Cc2ccc(F)cc2)C(=O)N1
Mu-type opioid receptor [1]
  Emax: 95.3%
[2]
  Emax: 89.3%
[3]
  Emax: 110%
Mus musculus [4]
  Activity: inactive
Mus musculus [5]
  Activity: inactive
Mus musculus [6]
  Activity: Active
Mus musculus [7]
  Activity: inactive
Mus musculus [8]
  Activity: Active
Mus musculus [9]
  Activity: Active
Mus musculus [10]
  Activity: Active
Mus musculus [11]
  Activity: Active
Mus musculus [12]
  Activity: inactive
Mus musculus [13]
  Activity: inactive

## CN1C(=O)CNC(=O)[C@H](NC(=O)[C@@H](N)Cc2ccc(O)cc2)CCCCNC(=O)C[C@H](C(=O)N2CCC[C@H]2C(N)=O)NC(=O)[C@@H]1Cc1ccccc1
Mu-type opioid receptor [1]
  Emax: 90.7%
[2]
  Emax: 93.7%
[3]
  Emax: 121%
Mus musculus [14]
  Activity: inactive
Mus musculus [15]
  Activity: inactive
Mus musculus [16]
  Activity: Active
Mus musculus [17]
  Activity: inactive
Mus musculus [18]
  Activity: Active
Mus musculus [19]
  Activity: Active
Mus musculus [20]
  Activity: Active
Mus musculus [21]
  Activity: inactive
Mus musculus [22]
  Activity: inactive

## C[C@H]1NC(=O)[C@H](NC(=O)[C@@H](N)Cc2ccc(O)cc2)CCCCNC(=O)C[C@H](C(=O)N2CCC[C@H]2C(N)=O)NC(=O)[C@H](Cc2ccccc2)NC1=O
Mu-type opioid receptor [23]
  EC50: 62.4 nM
Mu-type opioid receptor [1]
  Emax: 115%
Mus musculus [24]
  MPE: 63.6%
Mus musculus [25]
  MPE: 91.4%
Mus musculus [26]
  MPE: 88.4%
Mus musculus [27]
  MPE: 44.4%
[28]
  half-life at 0.01 mol/L: > 72 h

## CN1C(=O)CNC(=O)[C@H](NC(=O)[C@@H](N)Cc2ccc(O)cc2)CCCCNC(=O)C[C@@H](C(=O)N2CCC[C@@H]2C(N)=O)NC(=O)[C@@H]1Cc1ccccc1
Mus musculus [24]
  MPE: 81.9%
Mus musculus [25]
  MPE: 93.8%
Mus musculus [26]
  MPE: 93.9%
Mus musculus [27]
  MPE: 75.3%
Mus musculus [29]
  ED50: 0.0006 µmol/kg
Mus musculus [30]
  ED50: 0.0003 µmol/kg
Mus musculus [31]
  ED50: 0.0025 µmol/kg
Mus musculus [32]
  ED50: 0.0326 µmol/kg

## NC(=O)[C@@H]1CCCN1C(=O)[C@H]1CC(=O)NCCCC[C@@H](NC(=O)[C@@H](N)Cc2ccc(O)cc2)C(=O)NCC(=O)N[C@@H](Cc2ccccc2)C(=O)N1
Mu-type opioid receptor [1]
  Emax: 109%
[2]
  Emax: 103%
[3]
  Emax: 107%
Mus musculus [33]
  Activity: inactive
Mus musculus [34]
  Activity: inactive
Mus musculus [35]
  Activity: Active
Mus musculus [36]
  Activity: inactive
Mus musculus [37]
  Activity: Active
